Assay results taken from patent publication US20230072421A1, “TARGETED RADIOPHARMACEUTICALS FOR THE DIAGNOSIS AND TREATMENT OF PROSTATE CANCER” (Bayer AS, priority 2019, published 2023).

Molecular target: T1, PSMA-expressing LNCaP cells (Homo sapiens, UniProt Q04609)
T1 construct: PSMA-expressing LNCaP cells; endogenous in cells; host or cells: LNCaP
Experiment: Internalization assay (membrane bound and internalized Th-227)
Type: cell-based
Conditions: 10 nM radiolabeled compound, Th-227 at 375 kBq/nmol, triplicates; for Internalized in LNCaP fmol/10^6 cells 30 min / Membrane bound in LNCaP fmol/10^6 cells 30 min: 30 min incubation; for Internalized in LNCaP fmol/10^6 cells 2 h / Membrane bound in LNCaP fmol/10^6 cells 2 h: 2 h incubation
Procedure: For internalization assays 24 well plates (#3526, Corning) were coated with 200 μl Poly-L-Lysine (0.1 mg/ml, #3438-100-01, Fa. Cultrex) per well for 2 h at 37° C. […] Cells were incubated at 37° C. and 5% CO2 over night. On the following day 400 μl of the media were removed and a total of 200 μl growth medium added supplemented with PSMA-SMOLs labeled with Th-227 at 375 kBq/nmol in triplicates. Radiochemical purity of the labeling was analyzed by instant thin layer chromatography and found to be above 70% for all compounds used. The final concentration of radiolabeled SMOLs was in the test wells was 10 nM. Cells were incubated for 30 min or 2 h. After the incubation time supernatants were taken off and cells washed with PBS. Thereafter cells were washed twice with 0.2 ml 50 mM Glycine-HCl buffer (#55097, Sigma Aldrich) and once with PBS and the washing solutions combined in counting vials (#TK75-018, Fa. Corning) and subjected to gamma counting (1470 Wizard automatic gamma counter, Wallac). The resulting counts were attributed to membrane bound radioactivity. Cells were then lysed with 500 μl 0.3N NaOH (#181691.1211, Fa. PanReac AppliChem ITW Reagents) followed by another wash with 500 μl PBS. The NaOH lysate as well as the final wash were combined in vials and subjected to gamma counting as described above. Measured radioactivity was attributed to internalized fraction. Results were calculated as fmol of Th-227 per/10^cells in the membrane bound and internalized fractions from triplicate values.

T1 sequence (Q04609 whole entry): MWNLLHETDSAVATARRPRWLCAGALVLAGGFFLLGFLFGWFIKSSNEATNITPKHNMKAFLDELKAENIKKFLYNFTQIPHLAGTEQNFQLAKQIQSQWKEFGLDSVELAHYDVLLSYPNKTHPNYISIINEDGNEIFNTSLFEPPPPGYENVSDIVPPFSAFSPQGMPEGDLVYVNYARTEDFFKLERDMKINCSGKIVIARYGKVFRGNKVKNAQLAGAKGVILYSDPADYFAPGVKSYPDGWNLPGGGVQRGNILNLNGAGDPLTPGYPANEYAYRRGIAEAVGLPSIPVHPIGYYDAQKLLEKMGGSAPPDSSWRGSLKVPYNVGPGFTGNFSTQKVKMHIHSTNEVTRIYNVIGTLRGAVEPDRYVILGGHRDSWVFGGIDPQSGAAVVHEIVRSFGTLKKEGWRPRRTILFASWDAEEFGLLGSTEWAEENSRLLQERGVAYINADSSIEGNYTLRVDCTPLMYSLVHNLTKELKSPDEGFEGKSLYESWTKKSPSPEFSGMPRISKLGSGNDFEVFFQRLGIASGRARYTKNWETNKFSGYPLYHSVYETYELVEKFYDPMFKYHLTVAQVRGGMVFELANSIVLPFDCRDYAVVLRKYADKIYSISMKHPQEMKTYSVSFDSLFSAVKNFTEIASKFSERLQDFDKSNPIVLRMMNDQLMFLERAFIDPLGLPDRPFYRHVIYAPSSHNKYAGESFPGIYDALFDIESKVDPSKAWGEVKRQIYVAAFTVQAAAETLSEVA

Row | Compound | Internalized in LNCaP fmol/10^6 cells 30 min [fmol/10^6 cells] | Membrane bound in LNCaP fmol/10^6 cells 30 min [fmol/10^6 cells] | Internalized in LNCaP fmol/10^6 cells 2 h [fmol/10^6 cells] | Membrane bound in LNCaP fmol/10^6 cells 2 h [fmol/10^6 cells]
1 | O=C([O-])CN1CCN(CC(=O)[O-])CCN(CC(=O)NCC2CCC(C(=O)NC(Cc3ccc4ccccc4c3)C(=O)NCCCCC(NC(=O)NC(CCC(=O)O)C(=O)O)C(=O)O)CC2)CCN(CC(=O)[O-])CC1.[227Th+4] [Example 1-B-227Th, [^227Th]Thorium (3S,10S,14S)-3-[(naphthalen-2-yl)methyl]-1,4,12-trioxo-1-{(1r,4S)-4-[(2-{4,7,10-tris[(carboxy-kappaO)methyl]-1,4,7,10-tetraazacyclododecan-1-yl-kappa^4N^1,N^4,N^7,N^10}acetamido)methyl]cyclohexyl}-2,5,11,13-tetraazahexadecane-10,14,16-tricarboxylate] | 55 | 237 | 189 | 438
2 | O=C([O-])CN1CCN(CC(=O)[O-])CCN(CC(=O)NCC2CCC(C(=O)NC(Cc3ccc4ccccc4c3)C(=O)NCCCCC(NC(=O)NC(CCC(=O)O)C(=O)O)C(=O)O)CC2)CCN(CC(=O)[O-])CC1.[227Th+4] [Example 1-B-D-227Th, [^227Th]Thorium-(3S,10S,14R)-3-[(naphthalen-2-yl)methyl]-1,4,12-trioxo-1-{(1r,4S)-4-[(2-{4,7,10-tris[(carboxy-kappaO)methyl]-1,4,7,10-tetraazacyclododecan-1-yl-kappa^4N^1,N^4,N^7,N^10}acetamido)methyl]cyclohexyl}-2,5,11,13-tetraazahexadecane-10,14,16-tricarboxylate] | 3 | 16 | 12 | 30
